Reference: paper PMC5489766 (Journal of Ginseng Research, 2016)
pKd: −log10 of the molar value.

Key:
[1] = biological target: T1, HSA (Homo sapiens, UniProt P02768); assay: Fluorescence quenching of HSA by G-Rh2; assay type: binding; settings: for KSV: HSA 1 μM, pH 7.4; for pKd: K (binding constant)
[2] = general statement; cited from earlier work
[3] = test system: PARP cleavage in HepG2 cells; assay: Immunoblotting of PARP cleavage; assay type: cell-based; settings: HepG2, 7.5 μg/mL, BSA or bovine serum, 4 h
[4] = test system: HepG2 cells; assay: MTT assay, cytotoxic activity with or without serum albumin; assay type: cell-based; settings: HepG2, 7.5 μg/mL, 48 h
[5] = biological target: T2, BSA (Bos taurus, UniProt P02769); assay: Fluorescence quenching of BSA by G-Rh2; assay type: binding, bovine; settings: for KSV: BSA 1 μM, pH 7.4; for pKd: K (binding constant)
T2 sequence (P02769 25-607): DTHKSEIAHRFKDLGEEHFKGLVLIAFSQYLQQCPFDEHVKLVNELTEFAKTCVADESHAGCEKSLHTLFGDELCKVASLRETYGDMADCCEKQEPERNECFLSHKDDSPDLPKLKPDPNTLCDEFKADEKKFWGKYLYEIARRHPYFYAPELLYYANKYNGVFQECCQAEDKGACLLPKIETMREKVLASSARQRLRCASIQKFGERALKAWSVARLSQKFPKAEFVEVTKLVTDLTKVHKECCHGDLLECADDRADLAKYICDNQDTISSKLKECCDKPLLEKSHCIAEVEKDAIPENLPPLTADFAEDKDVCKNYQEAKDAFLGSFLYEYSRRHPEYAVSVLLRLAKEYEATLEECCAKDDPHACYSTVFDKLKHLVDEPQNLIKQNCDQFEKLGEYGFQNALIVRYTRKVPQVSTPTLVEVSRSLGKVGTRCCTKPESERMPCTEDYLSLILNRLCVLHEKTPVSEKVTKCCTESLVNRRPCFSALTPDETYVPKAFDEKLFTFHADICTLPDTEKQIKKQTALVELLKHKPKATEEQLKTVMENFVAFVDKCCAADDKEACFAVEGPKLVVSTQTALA

[6] = biological target: T1, HSA; assay: UV-Vis absorption spectra of HSA with G-Rh2; assay type: binding; settings: HSA 25 μM, G-Rh2 50 μM, 298K, pH7.4
[7] = biological target: T2, BSA; assay: UV-Vis absorption spectra of BSA with G-Rh2; assay type: binding, bovine; settings: BSA 25 μM, G-Rh2 50 μM, 298K, pH7.4

T1 sequence (P02768 25-609): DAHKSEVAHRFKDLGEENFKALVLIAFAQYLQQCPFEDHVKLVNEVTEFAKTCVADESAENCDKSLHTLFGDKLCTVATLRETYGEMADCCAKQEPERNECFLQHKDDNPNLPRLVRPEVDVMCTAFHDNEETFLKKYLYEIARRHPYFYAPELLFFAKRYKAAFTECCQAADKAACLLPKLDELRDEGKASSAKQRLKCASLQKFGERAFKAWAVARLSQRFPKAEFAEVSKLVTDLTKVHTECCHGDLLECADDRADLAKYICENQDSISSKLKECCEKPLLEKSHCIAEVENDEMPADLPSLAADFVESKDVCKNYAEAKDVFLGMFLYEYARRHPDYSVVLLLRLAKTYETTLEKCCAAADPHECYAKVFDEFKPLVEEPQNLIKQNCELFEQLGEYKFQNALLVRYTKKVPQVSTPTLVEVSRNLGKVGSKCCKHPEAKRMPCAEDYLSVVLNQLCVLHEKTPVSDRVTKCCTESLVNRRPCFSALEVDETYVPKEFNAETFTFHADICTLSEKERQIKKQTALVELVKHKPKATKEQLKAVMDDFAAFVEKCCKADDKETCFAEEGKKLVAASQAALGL

SMILES | KSV ([1]; 298 K) | KSV ([1]; 303 K) | KSV ([1]; 308 K) | kq ([1]; HSA, 298 K) | n (number of binding sites) ([1]; HSA, 298 K) | kq ([1]; HSA, 303 K) | n (number of binding sites) ([1]; HSA, 303 K) | kq ([1]; HSA, 308 K) | n (number of binding sites) ([1]; HSA, 308 K) | pKd ([1]; HSA, 298 K) | pKd ([1]; HSA, 303 K) | pKd ([1]; HSA, 308 K) | further results
CC(C)=CCC[C@](C)(O)[C@H]1CC[C@]2(C)[C@@H]1[C@H](O)C[C@@H]1[C@@]3(C)CC[C@H](O[C@@H]4O[C@H](CO)[C@@H](O)[C@H](O)[C@H]4O)C(C)(C)[C@@H]3CC[C@]12C [(20R) G-Rh2, Ginsenoside Rh2] | 4.5120 10^4 M^−1 | 6.9016 10^4 M^−1 | 7.2751 10^4 M^−1 | 4.5120 10^12 M^−1 s^−1 | 1.131 | 6.9016 10^12 M^−1 s^−1 | 1.0626 | 7.2751 10^12 M^−1 s^−1 | 1.0284 | 5.31 | 5.16 | 4.94 | 
CC(C)=CCC[C@](C)(O)[C@H]1CC[C@]2(C)[C@@H]1[C@H](O)C[C@@H]1[C@@]3(C)CC[C@H](O[C@@H]4O[C@H](CO)[C@@H](O)[C@H](O)[C@H]4O)C(C)(C)[C@@H]3CC[C@]12C [(20S) G-Rh2, Ginsenoside Rh2] | 4.9578 10^4 M^−1 | 6.5117 10^4 M^−1 | 7.2510 10^4 M^−1 | 4.9578 10^12 M^−1 s^−1 | 1.2027 | 6.5117 10^12 M^−1 s^−1 | 1.1449 | 7.2510 10^12 M^−1 s^−1 | 1.0786 | 5.74 | 5.54 | 5.27 | water solubility [2]: very low; PARP cleavage ([3]; with 1.68mg/mL albumin by adding HSA): totally inhibited PARP cleavage; PARP cleavage ([3]; without HSA): caused the cleavage of poly-adenosine diphosphate-ribose polymerase (PARP); number of binding site ([1]; HSA, temperature not stated, listed as (20S)-Rh2): 1; Cell viability ([4]; increased concentration of albumin by adding HSA, BSA or bovine serum): significantly increased in an albumin-dose-dependent manner; Cell viability ([4]; without SA): killed almost all cells; KSV ([5]; 298 K): 7.3470 10^4 M^−1; KSV ([5]; 303 K): 11.6703 10^4 M^−1; KSV ([5]; 308 K): 9.2848 10^4 M^−1; kq ([5]; BSA, 298 K): 7.3470 10^12 M^−1 s^−1; n (number of binding sites) ([5]; BSA, 298 K): 1.1329; kq ([5]; BSA, 303 K): 11.6703 10^12 M^−1 s^−1; n (number of binding sites) ([5]; BSA, 303 K): 1.0192; kq ([5]; BSA, 308 K): 9.2848 10^12 M^−1 s^−1; n (number of binding sites) ([5]; BSA, 308 K): 0.9702; number of binding site ([5]; BSA, temperature not stated (abstract)): 1; pKd ([5]; BSA, 298 K): 5.56; pKd ([5]; BSA, 303 K): 5.15; pKd ([5]; BSA, 308 K): 4.81
CC(C)=CCC[C@](C)(O)[C@H]1CC[C@]2(C)[C@@H]1[C@H](O)C[C@@H]1[C@@]3(C)CC[C@H](O[C@@H]4O[C@H](CO)[C@@H](O)[C@H](O)[C@H]4O)C(C)(C)[C@@H]3CC[C@]12C [G-Rh2, Ginsenoside Rh2] |  |  |  |  |  |  |  |  |  |  |  |  | UV-Vis absorption of protein on adding G-Rh2 [6]: significantly increased with a slight blue shift of the maximum absorption wavelength; UV-Vis absorption of protein on adding G-Rh2 [7]: significantly increased with a slight blue shift of the maximum absorption wavelength
